PubChem BioAssay AID212 (DTP/NCI, 2004)
Several values for one entry are separate records, joined by “and”; a condition that tells them apart may be missing. Identical values can stand only once. Results filed as inconclusive are left out.

Test system: BDF1 mice, colon carcinoma 38 sc, T/C %
Assay: NCI In Vivo Anticancer Drug Screen. Data for tumor model Colon Carcinoma 38 (subcutaneous) in B6D2F1 (BDF1) mice
Conditions: endpoint: median tumor weight (est.), higher = larger tumour
Protocol: The antitumor activity of compounds was measured in mice bearing transplantable tumors. Survival or tumor size were measured and the results are expressed as the measurement made in the treated group (T) divided by the measurement made in the vehicle treated control group (C). The tumor model used in this assay is Colon Carcinoma 38 (subcutaneous) in B6D2F1 (BDF1) mice

[1] = dose: 12.5 mg/kg/injection, schedule: Q07DX002 (ip), vehicle: saline with Tween-80
[2] = dose: 25.0 mg/kg/injection, schedule: Q07DX002 (ip), vehicle: saline with Tween-80
[3] = dose: 50.0 mg/kg/injection, schedule: Q07DX002 (ip), vehicle: saline with Tween-80
[4] = dose: 100.0 mg/kg/injection, schedule: Q07DX002 (ip), vehicle: saline with Tween-80
[5] = dose: 50.0 mg/kg/injection, schedule: Q07DX002 (ip), vehicle: saline
[6] = dose: 200.0 mg/kg/injection, schedule: Q07DX002 (ip), vehicle: saline
[7] = dose: 400.0 mg/kg/injection, schedule: Q07DX002 (ip), vehicle: saline
[8] = dose: 1600.0 mg/kg/injection, schedule: Q07DX002 (ip), vehicle: saline
[9] = dose: 50.0 mg/kg/injection, schedule: Q07DX002 (ip), vehicle: DMSO
[10] = dose: 100.0 mg/kg/injection, schedule: Q07DX002 (ip), vehicle: DMSO
[11] = dose: 100.0 mg/kg/injection, schedule: Q07DX002 (ip), vehicle: Klucel (hydroxypropylcellulose) (HPC)
[12] = dose: 200.0 mg/kg/injection, schedule: Q07DX002 (ip), vehicle: saline with Tween-80
[13] = dose: 12.5 mg/kg/injection, schedule: Q07DX002 (ip), vehicle: Klucel (hydroxypropylcellulose) (HPC)
[14] = dose: 25.0 mg/kg/injection, schedule: Q07DX002 (ip), vehicle: Klucel (hydroxypropylcellulose) (HPC)
[15] = dose: 50.0 mg/kg/injection, schedule: Q07DX002 (ip), vehicle: Klucel (hydroxypropylcellulose) (HPC)
[16] = dose: 25.0 mg/kg/injection, schedule: Q07DX002 (ip), vehicle: saline

## CC(=O)Oc1c[nH]c(=O)[nH]c1=O
dose: 50.0 mg/kg/injection, schedule: Q07DX002 (ip), vehicle: distilled water + Tween-80
  T/C: 107 % of control
dose: 100.0 mg/kg/injection, schedule: Q07DX002 (ip), vehicle: distilled water + Tween-80
  T/C: 108 % of control and 121 % of control
dose: 400.0 mg/kg/injection, schedule: Q07DX002 (ip), vehicle: distilled water + Tween-80
  T/C: 124 % of control
dose: 800.0 mg/kg/injection, schedule: Q07DX002 (ip), vehicle: distilled water + Tween-80
  T/C: 121 % of control and 102 % of control

## CC(=O)NC(C=O)OCC=O (stereo unspecified)
dose: 12.5 mg/kg/injection, schedule: Q07DX002 (ip), vehicle: water
  T/C: 92 % of control
dose: 400.0 mg/kg/injection, schedule: Q07DX002 (ip), vehicle: water
  T/C: 152 % of control

## N#Cc1c(N)[nH]c2ccc(Sc3ccccc3)cc12
[1]
  T/C: 78 % of control
[2]
  T/C: 97 % of control
[3]
  T/C: 63 % of control
[4]
  T/C: 73 % of control

## COC(=O)C(N)Cc1ccc(O)c(O)c1 (stereo unspecified)
[5]
  T/C: 85 % of control
dose: 100.0 mg/kg/injection, schedule: Q07DX002 (ip), vehicle: saline
  T/C: 113 % of control
[6]
  T/C: 88 % of control
[7]
  T/C: 99 % of control
dose: 800.0 mg/kg/injection, schedule: Q07DX002 (ip), vehicle: saline
  T/C: 110 % of control
[8]
  T/C: 51 % of control

## CC1=CC(C)(C)Nc2ccc(CSc3ccccc3)cc21
dose: 6.25 mg/kg/injection, schedule: Q07DX002 (ip), vehicle: DMSO
  T/C: 88 % of control
dose: 12.5 mg/kg/injection, schedule: Q07DX002 (ip), vehicle: DMSO
  T/C: 86 % of control
dose: 12.5 mg/kg/injection, schedule: Q07DX002 (ip), vehicle: saline + Tween-80 + alcohol
  T/C: 78 % of control
dose: 25.0 mg/kg/injection, schedule: Q07DX002 (ip), vehicle: DMSO
  T/C: 76 % of control
dose: 25.0 mg/kg/injection, schedule: Q07DX002 (ip), vehicle: saline + Tween-80 + alcohol
  T/C: 86 % of control
[9]
  T/C: 67 % of control
dose: 50.0 mg/kg/injection, schedule: Q07DX002 (ip), vehicle: saline + Tween-80 + alcohol
  T/C: 107 % of control
[10]
  T/C: 59 % of control
dose: 100.0 mg/kg/injection, schedule: Q07DX002 (ip), vehicle: saline + Tween-80 + alcohol
  T/C: 102 % of control

## O=C(Nc1ccccc1)c1c(O)[nH]c(=S)[nH]c1=O
dose: 112.0 mg/kg/injection, schedule: Q07DX002 (ip), vehicle: saline with Tween-80
  T/C: 68 % of control
dose: 225.0 mg/kg/injection, schedule: Q07DX002 (ip), vehicle: saline with Tween-80
  T/C: 51 % of control

## Cc1cc(=O)c2cccc(CC(=O)O)c2o1
[11]
  T/C: 119 % of control
dose: 200.0 mg/kg/injection, schedule: Q07DX002 (ip), vehicle: Klucel (hydroxypropylcellulose) (HPC)
  T/C: 114 % of control
dose: 400.0 mg/kg/injection, schedule: Q07DX002 (ip), vehicle: Klucel (hydroxypropylcellulose) (HPC)
  T/C: 76 % of control

## O=NN(CCCl)C(=O)NC1[C@H](O)CCC[C@@H]1O (stereo partly specified)
dose: 1.25 mg/kg/injection, schedule: Q07DX002 (ip), vehicle: saline
  T/C: 68 % of control
dose: 2.5 mg/kg/injection, schedule: Q07DX002 (ip), vehicle: saline
  T/C: 53 % of control and 76 % of control
dose: 10.0 mg/kg/injection, schedule: Q07DX002 (ip), vehicle: saline
  T/C: 9 % of control and 26 % of control

## NS(=O)(=O)OCCCCCCCOS(N)(=O)=O
[2]
  T/C: 124 % of control
[12]
  T/C: 9 % of control and 16 % of control

## Cc1ccc(NC(=O)Oc2ccc(Br)cc2Br)c([N+](=O)[O-])c1
[2]
  T/C: 111 % of control and 102 % of control
[3]
  T/C: 51 % of control and 62 % of control
[4]
  T/C: 86 % of control and 94 % of control
[12]
  T/C: 65 % of control and 79 % of control

## O=C/C(Cl)=C(/Cl)C(=O)O
dose: 5.0 mg/kg/injection, schedule: Q07DX002 (ip), vehicle: saline with Tween-80
  T/C: 63 % of control
dose: 10.0 mg/kg/injection, schedule: Q07DX002 (ip), vehicle: saline with Tween-80
  T/C: 113 % of control and 92 % of control

## C=CS(=O)(=O)c1ccccc1
dose: 6.25 mg/kg/injection, schedule: Q07DX002 (ip), vehicle: saline with Tween-80
  T/C: 91 % of control
[1]
  T/C: 66 % of control
dose: 12.5 mg/kg/injection, schedule: Q07DX002 (ip), vehicle: saline
  T/C: 97 % of control
[2]
  T/C: 174 % of control
[3]
  T/C: 150 % of control
[5]
  T/C: 100 % of control
[4]
  T/C: 109 % of control

## O=C(O)[C@H](Cc1ccccc1)N1C(=O)c2ccccc2C1=O
[9]
  T/C: 98 % of control
[10]
  T/C: 108 % of control

## O=S(CCCl)CCCl
dose: 0.78 mg/kg/injection, schedule: Q07DX003 (ip), vehicle: Klucel (hydroxypropylcellulose) (HPC)
  T/C: 57 % of control
dose: 1.56 mg/kg/injection, schedule: Q07DX003 (ip), vehicle: Klucel (hydroxypropylcellulose) (HPC)
  T/C: 84 % of control
dose: 3.12 mg/kg/injection, schedule: Q07DX003 (ip), vehicle: Klucel (hydroxypropylcellulose) (HPC)
  T/C: 83 % of control
dose: 6.25 mg/kg/injection, schedule: Q07DX003 (ip), vehicle: Klucel (hydroxypropylcellulose) (HPC)
  T/C: 87 % of control
[13]
  T/C: 150 % of control
dose: 12.5 mg/kg/injection, schedule: Q07DX003 (ip), vehicle: Klucel (hydroxypropylcellulose) (HPC)
  T/C: 84 % of control
[14]
  T/C: 96 % of control
dose: 25.0 mg/kg/injection, schedule: Q07DX003 (ip), vehicle: Klucel (hydroxypropylcellulose) (HPC)
  T/C: 95 % of control
[15]
  T/C: 153 % of control
[11]
  T/C: 110 % of control

## N=c1ccn2c(n1)OC1C(O)C(CO)OC12 (stereo unspecified)
[16]
  T/C: 84 % of control
[5]
  T/C: 105 % of control
dose: 50.0 mg/kg/injection, schedule: Q07DX003 (ip), vehicle: suspension in saline
  T/C: 94 % of control
dose: 100.0 mg/kg/injection, schedule: Q07DX003 (ip), vehicle: suspension in saline
  T/C: 73 % of control
dose: 200.0 mg/kg/injection, schedule: Q07DX003 (ip), vehicle: suspension in saline
  T/C: 66 % of control
dose: 400.0 mg/kg/injection, schedule: Q07DX003 (ip), vehicle: suspension in saline
  T/C: 51 % of control
dose: 800.0 mg/kg/injection, schedule: Q07DX003 (ip), vehicle: suspension in saline
  T/C: 20 % of control
[8]
  T/C: 31 % of control
dose: 1600.0 mg/kg/injection, schedule: Q07DX003 (ip), vehicle: suspension in saline
  T/C: 19 % of control

## CCN(CC)c1ccc2cc(-c3nc4ccccc4n3C)c(=O)oc2c1
[13]
  T/C: 112 % of control
[14]
  T/C: 120 % of control
[15]
  T/C: 85 % of control
[11]
  T/C: 62 % of control

## C=C1C(=O)OCC1(C(=O)OCC)C(=O)OCC
[1]
  T/C: 42 % of control and 62 % of control and 66 % of control
[3]
  T/C: 88 % of control

## O=CC(NC(=O)N(CCCl)N=O)C(O)C(O)C(O)CO (stereo unspecified)
dose: 0.47 mg/kg/injection, schedule: Q07DX003 (ip), vehicle: saline
  T/C: 102 % of control
dose: 0.94 mg/kg/injection, schedule: Q07DX003 (ip), vehicle: saline
  T/C: 98 % of control
dose: 1.5 mg/kg/injection, schedule: Q07DX002 (ip), vehicle: saline
  T/C: 105 % of control
dose: 3.75 mg/kg/injection, schedule: Q07DX003 (ip), vehicle: saline
  T/C: 68 % of control
dose: 4.0 mg/kg/injection, schedule: Q07DX002 (ip), vehicle: saline
  T/C: 92 % of control
dose: 6.0 mg/kg/injection, schedule: Q07DX003 (ip), vehicle: saline
  T/C: 68 % of control
dose: 7.5 mg/kg/injection, schedule: Q07DX003 (ip), vehicle: saline
  T/C: 68 % of control
dose: 8.0 mg/kg/injection, schedule: Q07DX002 (ip), vehicle: saline
  T/C: 57 % of control
dose: 12.0 mg/kg/injection, schedule: Q07DX003 (ip), vehicle: saline
  T/C: 82 % of control
dose: 15.0 mg/kg/injection, schedule: Q07DX003 (ip), vehicle: saline
  T/C: 43 % of control
dose: 16.0 mg/kg/injection, schedule: Q07DX002 (ip), vehicle: saline
  T/C: 43 % of control
dose: 24.0 mg/kg/injection, schedule: Q07DX003 (ip), vehicle: saline
  T/C: 57 % of control

## COC(=O)c1ccoc1
[16]
  T/C: 105 % of control
[5]
  T/C: 94 % of control
[6]
  T/C: 118 % of control
[7]
  T/C: 112 % of control
